Assay results from patent publication US20250263644A1, “COMPOSITIONS COMPRISING YEAST CELLS AND POLYPHENOLS AND THEIR USE” (INSTITUT NATIONAL D'ETUDES SUPERIEURES AGRONOMIQUES DE …, priority 2015, published 2025).

Tests used:
[1] = system: yeast cells; assay: Evaluation of the reversibility of polyphenol adsorption; assay type: binding, Saccharomyces cerevisiae; settings: pellets re-suspended in model wine without polyphenols, 24 h; FIG. 7b
Experimental: The yeast pellets obtained by centrifugation after adsorption above were re-suspended in 2 ml of a model wine without polyphenols. Samples were stirred for 24 h and the supernatants recovered. The adsorption reversibility was evaluated through the quantity of polyphenols recovered in supernatants.

[2] = system: yeast cells; assay: Adsorption isotherms: polyphenols adsorbed by yeast; assay type: binding, Saccharomyces cerevisiae; settings: 24 h contact in model wine, 10^8 cells/mL, A280 of supernatant; FIG. 7a
Experimental: A contact time of 24 h was chosen for adsorption experiments. A stock solution of polyphenols with a molecular weight below 620 Da was prepared by dissolving catechin powder in a model wine at a concentration of 10 g/L. A stock solution of polyphenols with a molecular weight above 620 Da was prepared by dissolving grape skin tannins with a DPm of 20 in a model wine at a concentration of 10 g/L
Dilutions of both stock solutions were performed to get a final concentration range between 0.01 and 5 g/L. All sorption experiments were carried out by mixing equal volumes of a 2×g·L^−1 polyphenol solution (x being the final desired polyphenol concentration) and of a 2·10^8 cells/mL suspension (final concentration 10^8 cells/mL). Samples (2 ml) were placed in a 2 mL tightly closed Eppendorf in order to minimize headspace and were stirred continuously (Stuart rotator SB3, 40 rpm) in absence of light and at room temperature. […] The total polyphenol concentrations in the bulk were determined by absorbency measurements at 280 nm after adequate dilution. Total encapsulated polyphenol with a molecular weight below 620 Da and total encapsulated polyphenols with a molecular weight above 620 Da were calculated from the difference in absorbency between the samples and the corresponding controls using: […]

Question: Which “reversibility of interactions between yeast and adsorbed polyphenols” value [1] does the source give for catechin here?
Answer: fully reversible

Question: And the “amounts of polyphenols adsorbed by yeast, compared with DPm 20” value [2]?
Answer: about 10 times lower
